The results in this text go back to patent US8735377B1, “Methods of treating herpes zoster” (priority 2010, dated 2014).

A short description of series [1]: Plasma concentration of COL-3 in humans. It is filed as in vivo. The note with it: dose of about 10 to about 20 mg/day. The procedure: An example of a COL is 6-demethyl-6-deoxy-4-de(dimethylamino)tetracycline (COL-3). COL-3 is administered in doses of up to about 200 mg/day, preferably about 150 mg/day, more preferably about 100 mg/day, or in amounts that result in plasma concentrations of up to about 50 μg/ml, about 40 μg/ml or about 30 μg/ml. For example, a dose of about 10 to about 20 mg/day of COL-3 produces plasma concentrations in humans of about 1.0 μg/ml.

The test system of the next series is herpes zoster (shingles). Put plainly: Case report: patient on sub-antibacterial doxycycline hyclate who presented with shingles. It counts as in vivo, human. The note with it: one patient. The procedure:
The below Example summarizes an incidence using 20 mg doxycycline hyclate tablets administered twice a day.
A person (hereinafter “the patient”) had been taking generic Periostat® (20 mg doxycycline hyclate b.i.d.) for over a six month period when they presented with shingles. […] By this time, the patient had blistering and vesicular lesions, and lesions consisting of deep scabs on their face (e.g., upper cheek), neck and chest. All lesions presented on patient's left side without crossing the midline.
The patient also reported being lethargic, weak and dizzy.
The medical doctor who examined the patient was very surprised to hear that the lesions were not painful. They said that the lesions were at the stage where they typically cause intense pain. The doctor predicted that, even if the lesions were not painful at the moment, they would become very painful shortly, particularly since antiviral therapy would be initiated after 72 hours of the appearance of the characteristic lesions. Accordingly, the doctor prescribed the narcotic pain reliever Percocet®.
The doctor also prescribed VALTREX®, an antiherpetic medication, in a dose of a 1 gram tablet, taken 3 times a day for 7 days. The doctor advised that VALTREX® should have been started within 2 or 3 days of the first appearance of a lesion in order to effectively minimize pain.
The patient began taking the VALTREX®, as prescribed. […]

`NC(=O)C1=C(O)C[C@@H]2C[C@@H]3Cc4cccc(O)c4C(=O)C3=C(O)[C@]2(O)C1=O` [COL-3, 6-demethyl-6-deoxy-4-dedimethylaminotetracycline]: in series [1], the “plasma concentration in humans” value was “about 1.0 μg/ml”.
As for doxycycline hyclate, the “pain reported by the patient throughout the course of shingles” value in the series on herpes zoster (shingles) (20 mg b.i.d., no analgesic taken) is reported as “did not feel any pain whatsoever”. The “inhibition of the pain typically associated with lesions of shingles” value with herpes zoster (shingles) (20 mg tablets twice a day, taken for over six months before onset, VALTREX started over 96 hours after first lesion, no analgesic) is “virtually complete inhibition”.
